Consider 31 molecules from EP4653437A2 (Innovo Therapeutics Inc., priority 2023, dated 2024).

Molecules are shown by their SMILES. Like-named read-outs stand apart in the source and are kept apart here.

Assay [1] concerns A549 cells. As to the kind of experiment: Measurement of PGE2-increasing activity in A549 cells (IL-1β stimulated, PGE2 quantified in supernatant). In kind it is cell-based. Particulars: Homo sapiens, read-out: Increased PGE2 production in A549 cells. Here is the method: A549 cells were prepared at a cell number of 1 x 10^5/mL in F12K medium containing 10% FBS (Fetal Bovine Serum), and 2 x 10^4/200 µL was added to each well of a 96-well cell culture plate, and then cultured in an incubator with 5% CO2 at 37 °C for 24 hours. After the culture was complete and all F12K medium was removed, all wells were washed once with 100 µL of PBS, and treated with 160 µL of serum-free F12K medium. Then, 20 µL of IL-1β diluted 10-fold to a concentration of 1 ng/mL in serum-free F12K medium was treated to wells to be treated with IL-1β, and 20 µL of serum-free F12K medium was treated to wells not treated with IL-1β. For the wells to be treated with the compound, 20 µL of the compound dissolved in 100% DMSO was diluted to a concentration 10 times of the desired compound concentration in serum-free F12K medium so that the final DMSO concentration treated to the cells was 0.1%, and for the wells not to be treated with the compound, 20 µL of DMSO diluted in serum-free F12K medium so that the final DMSO concentration treated to the cells was 0.1% was treated. In order to confirm the increase or decrease in the secretion amount of PGE2 in the supernatant collected after culturing for 24 hours in an incubator with 5% CO2 at 37 °C, PGE2 was quantified using the Prostaglandin E2 Parameter (SKGE004B).

Assay [2] has as its target T1, human 15-PGDH (Homo sapiens, UniProt P15428).
T1 construct: purchased R&D System 5660-DH
T1 sequence (P15428 1-266): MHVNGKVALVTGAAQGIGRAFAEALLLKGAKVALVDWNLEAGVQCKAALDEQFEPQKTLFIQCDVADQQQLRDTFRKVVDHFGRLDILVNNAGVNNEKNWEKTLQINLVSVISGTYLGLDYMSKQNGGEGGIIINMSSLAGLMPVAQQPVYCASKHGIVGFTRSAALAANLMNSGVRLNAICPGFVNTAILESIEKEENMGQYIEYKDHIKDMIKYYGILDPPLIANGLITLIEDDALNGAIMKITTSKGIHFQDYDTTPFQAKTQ
Description: Evaluation of 15-PGDH inhibitory activity (fluorescence enzyme assay, NAD+/PGE2). Particulars: human 15-PGDH enzyme, fluorescence Vmax. In kind it is biochemical. Here is the method: 15-PGDH inhibition activity of Example compounds was measured as follows. 6.7 ng of human 15-PGDH (R&D System# 5660-DH) enzyme (10 µL) was added to a black 96 well plate, 60 µL of buffer (50 mM Tris-HCl, pH 7.5, 0.01% Tween 20) was added, and 10 µL of 200 µM β-Nicotinamide adenine dinucleotide sodium salt (Sigma, Cat# N0632-5G) was added. 10 µL of (10x) compound solution in DMSO was added and reacted for 10 minutes at room temperature.

[3] abbreviates: 24 h, concentration of 1 µM of each compound, IL-1β treated A549 cells.

One may read the IC50 as the concentration that gives 50% inhibition. Read a low IC50 as higher potency. With `Cc1nc(-c2ccc(-c3cccc4c(C(=O)N5CCCCC5)cnn34)cc2F)no1` [Example 303, [7-[3-fluoro-4-(5-methyl-1,2,4-oxadiazol-3-yl)phenyl]pyrazolo[1,5-a]pyridin-3-yl]-(1-piperidyl)methanone], the fold induction at 1 µM in assay [1] (setting [3]) is above 1.5. The molecule also showed a concentration for half-maximal inhibition (IC50) in assay [2] of at most 100 nM.
On the same counts, the results for `O=C(Nc1cncc(-c2cccc3c(C(=O)N4CCCCC4)cnn23)c1)c1cccnc1` [Example 326, N-(5-(3-(piperidine-1-carbonyl)pyrazolo[1,5-a]pyridin-7-yl)pyridin-3-yl)nicotinamide] are above 1.5 and at most 100 nM.
On the same counts, the results for `COCCC(=O)Nc1cncc(-c2cccc3c(C(=O)N4CCCCC4)cnn23)c1` [Example 197] are above 1.5 and at most 100 nM.
For `CC(C)N1CCN(C(=O)c2cncc(-c3cccc4c(C(=O)N5CCCCC5)cnn34)c2)CC1` [Example 50, (4-isopropylpiperazin-1-yl)(5-(3-(piperidine-1-carbonyl)pyrazolo[1,5-a]pyridin-7-yl)pyridin-3-yl)methanone], in that order: above 1.5 and at most 100 nM.
With `O=C1NCc2ccc(-c3cccc4c(C(=O)N5CCCC(F)C5)cnn34)cc21` (centres unmarked) [Example 378, 6-(3-(3-fluoropiperidine-1-carbonyl)pyrazolo[1,5-a]pyridin-7-yl)isoindolin-1-one], the fold induction at 1 µM in assay [1] (setting [3]) is above 1.5. In addition, the IC50 in assay [2] was at most 100 nM.
Regarding `O=C(c1cnn2c(-c3ccccc3)cccc12)N1C2CCC1CC2` [Example 229, (7-azabicyclo[2.2.1]heptan-7-yl)(7-phenylpyrazolo[1,5-a]pyridin-3-yl)methanone], the fold induction at 1 µM in assay [1] (A549, 24 h) was above 1.5. In assay [2], the IC50 is at most 100 nM.
Take `CN1CCN(C(=O)c2ccc(-c3cccc4c(C(=O)N5CCCCC5)cnn34)cc2)CC1` [Example 67, (4-methylpiperazin-1-yl)(4-(3-(piperidine-1-carbonyl)pyrazolo[1,5-a]pyridin-7-yl)phenyl)methanone]: the fold induction at 1 µM in assay [1] (setting [3]) was above 1.5. In assay [2], this molecule had an IC50 of at most 100 nM.
In assay [2], `O=C(c1cc2c(-c3ccc4c(c3)OCO4)cncc2[nH]1)N1CCCCC1` [Example 175, (4-(benzo[d][1,3]dioxol-5-yl)-1H-pyrrolo[2,3-c]pyridin-2-yl)(piperidin-1-yl)methanone] displayed an IC50 above 1000 nM.
`O=C(c1cc2nc(-c3ccc(O)c(Cl)c3)ccc2[nH]1)N1CCCCC1` [Example 186, (5-(3-chloro-4-hydroxyphenyl)-1H-pyrrolo[3,2-b]pyridin-2-yl)(piperidin-1-yl)methanone] came in with an IC50 in assay [2] of 100 to 1000 nM.
Still for that read-out and setting: the figure for `O=C(c1cnn2c(-c3cccc4ccccc34)cccc12)N1CCCCC1` [Example 128, (7-(naphthalen-1-yl)pyrazolo[1,5-a]pyridin-3-yl)(piperidin-1-yl)methanone] is at most 100 nM; for `Cc1cc(-c2ccnc(Cl)c2)c2ncc(C(=O)N3CCCCC3)n2c1` [Example 166, (8-(2-chloropyridin-4-yl)-6-methylimidazo[1,2-a]pyridin-3-yl)(piperidin-1-yl)methanone] it is 100 to 1000 nM.
The same measure, in the same setting: the figure for `O=C(c1cnn2c(-c3ccc4[nH]ccc4c3)cccc12)N1CCCCC1` [Example 126, (7-(1H-indol-5-yl)pyrazolo[1,5-a]pyridin-3-yl)(piperidin-1-yl)methanone] is at most 100 nM.
On the same count and under the same terms, the figure for `COc1ccc(-c2ccc3[nH]c(C(=O)N4CCCCC4)cc3n2)cc1` [Example 179, (5-(4-methoxyphenyl)-1H-pyrrolo[3,2-b]pyridin-2-yl)(piperidin-1-yl)methanone] is 100 to 1000 nM.
For the molecule `O=C(c1cnn2c(-c3cc4ccccc4o3)cccc12)N1CCCCC1` [Example 123, (7-(benzofuran-2-yl)pyrazolo[1,5-a]pyridin-3-yl)(piperidin-1-yl)methanone], the IC50 in assay [2] is at most 100 nM.
Still for that read-out and setting: the figure for `O=C(c1cnn2c(-c3ccc4[nH]c(=O)ccc4c3)cccc12)N1CCCCC1` [Example 145, 6-(3-(piperidine-1-carbonyl)pyrazolo[1,5-a]pyridin-7-yl)quinolin-2(1H)-one] is at most 100 nM; for `Cc1nn(C)c(C)c1S(=O)(=O)Nc1cccc2c(C(=O)N3CCCCC3)cnn12` [Example 240, 1,3,5-trimethyl-N-[3-(piperidine-1-carbonyl)pyrazolo[1,5-a]pyridin-7-yl]pyrazole-4-sulfonamide] it is above 1000 nM.
On the same count and under the same terms, the figure for `O=C(c1cc2nc(-c3ccc(Cl)cc3)ccc2[nH]1)N1CCCCC1` [Example 180, (5-(4-chlorophenyl)-1H-pyrrolo[3,2-b]pyridin-2-yl)(piperidin-1-yl)methanone] is 100 to 1000 nM.
On the same count and under the same terms, the figure for `COc1ccc(-c2cccc3c(C(=O)N4CCCCC4)cnn23)cc1OC` [Example 24, (7-(3,4-dimethoxyphenyl)pyrazolo[1,5-a]pyridin-3-yl)(piperidin-1-yl)methanone] is at most 100 nM; for `O=C(c1c[nH]c2c(-c3cccc(Cl)c3)cccc12)N1CCCCC1` [Example 169, (7-(3-chlorophenyl)-1H-indol-3-yl)(piperidin-1-yl)methanone] it is at most 100 nM; for `O=C(Nc1cccnc1)c1ccc(-c2cccc3c(C(=O)N4CCCCC4)cnn23)cc1` [Example 71, 4-(3-(piperidine-1-carbonyl)pyrazolo[1,5-a]pyridin-7-yl)-N-(pyridin-3-yl)benzamide] it is at most 100 nM.
Regarding `O=C(c1cnc2c(-c3cccc(Cl)c3)cccn12)N1CCCCC1` [Example 162, (8-(3-chlorophenyl)imidazo[1,2-a]pyridin-3-yl)(piperidin-1-yl)methanone], the IC50 in assay [2] is at most 100 nM.
Consider `O=C(c1cc2nc(-c3ccc4cn[nH]c4c3)ccc2[nH]1)N1CCCCC1` [Example 190, (5-(1H-indazol-6-yl)-1H-pyrrolo[3,2-b]pyridin-2-yl)(piperidin-1-yl)methanone], for which the half-maximal inhibitory concentration (IC50) in assay [2] was at most 100 nM.
Still for that read-out and setting: with `O=C(c1cc2nc(N3Cc4ccccc4C3=O)ccc2[nH]1)N1CCCCC1` [Example 191, 2-(2-(piperidine-1-carbonyl)-1H-pyrrolo[3,2-b]pyridin-5-yl)isoindolin-1-one] the figure was 100 to 1000 nM; with `O=C(c1cnn2c(-c3ccc4ccccc4c3)cccc12)N1CCCCC1` [Example 129, (7-(naphthalen-2-yl)pyrazolo[1,5-a]pyridin-3-yl)(piperidin-1-yl)methanone], at most 100 nM.
As for `O=C(c1cc2nc(-c3ccc4c(c3)OCO4)ccc2[nH]1)N1CCCCC1` [Example 173, (5-(benzo[d][1,3]dioxol-5-yl)-1H-pyrrolo[3,2-b]pyridin-2-yl)(piperidin-1-yl)methanone], the IC50 in assay [2] is at most 100 nM.
On the same count and under the same terms, the figure for `O=C(c1cnn2c(-c3ccc4cn[nH]c4c3)cccc12)N1CCCCC1` [Example 125, (7-(1H-indazol-6-yl)pyrazolo[1,5-a]pyridin-3-yl)(piperidin-1-yl)methanone] is at most 100 nM; for `O=C(c1cnc2c(-c3ccc([N+](=O)[O-])cc3)cccn12)N1CCCCC1` [Example 163, (8-(4-nitrophenyl)imidazo[1,2-a]pyridin-3-yl)(piperidin-1-yl)methanone] it is at most 100 nM.
The same measure, in the same setting: the figure for `O=C(c1cc2nc(-c3ccc4c(c3)OCCO4)ccc2[nH]1)N1CCCCC1` [Example 178, (5-(2,3-dihydrobenzo[b][1,4]dioxin-6-yl)-1H-pyrrolo[3,2-b]pyridin-2-yl)(piperidin-1-yl)methanone] is 100 to 1000 nM; for `O=C(c1cnn2c(-c3ccc4c(c3)OCO4)cccc12)N1CCCCC1` [Example 121, (7-(benzo[d][1,3]dioxol-5-yl)pyrazolo[1,5-a]pyridin-3-yl)(piperidin-1-yl)methanone] it is at most 100 nM.
On the same count and under the same terms, the figure for `O=C(c1cc2ncc(-c3ccc4c(c3)OCO4)cc2[nH]1)N1CCCCC1` [Example 172, (6-(benzo[d][1,3]dioxol-5-yl)-1Hpyrrolo[3,2-b]pyridin-2-yl)(piperidin-1-yl)methanone] is above 1000 nM; for `O=C(c1cc2c(-c3ccc4c(c3)OCO4)nccc2[nH]1)N1CCCCC1` [Example 174, (4-(benzo[d][1,3]dioxol-5-yl)-1H-pyrrolo[3,2-c]pyridin-2-yl)(piperidin-1-yl)methanone] it is above 1000 nM.
